Experimental data taken from US11725011B2, “Bicyclic urea kinase inhibitors and uses thereof” (The Broad Institute, Inc., priority 2016, dated 2023).

Assays:
[1] = biological target: SIK2 (Homo sapiens (Human), UniProt Q9H0K1); test: Percent activity against SIK2 at 1 μM; type: biochemical; conditions: for SIK2 % ACTIVITY: compound at 1 μM, approximate Km for ATP
[2] = biological target: SIK1 (Homo sapiens (Human), UniProt P57059); test: Percent activity against SIK1 at 1 μM; type: biochemical; conditions: for SIK1 % ACTIVITY: compound at 1 μM, approximate Km for ATP
[3] = qAC50 biological assay (Table 4); conditions: for Data Mode: curve direction of qAC50 data
[4] = Viability loss (Table 4); type: cell-based
[5] = biological target: SIK3 (Homo sapiens (Human), UniProt Q9Y2K2); test: Percent activity against SIK3 at 1 μM; type: biochemical; conditions: for SIK3 % ACTIVITY: compound at 1 μM, approximate Km for ATP
[6] = biological target: full length His6-MBP-tagged hSIK2 (Homo sapiens (Human), UniProt Q9H0K1); test: SIK2 kinase activity assay (Caliper-based mobility shift); type: biochemical; conditions: 4 nM hSIK2, 30 μM ATP, 1 hr, rt
Protocol: Reactions were quenched by adding 20 mM EDTA (pH 8) after 1 hr, and percentage of substrate conversion was measured by LabChip EZ Reader II (PerkinElmer).

Sequence of SIK2 (Q9H0K1 whole entry): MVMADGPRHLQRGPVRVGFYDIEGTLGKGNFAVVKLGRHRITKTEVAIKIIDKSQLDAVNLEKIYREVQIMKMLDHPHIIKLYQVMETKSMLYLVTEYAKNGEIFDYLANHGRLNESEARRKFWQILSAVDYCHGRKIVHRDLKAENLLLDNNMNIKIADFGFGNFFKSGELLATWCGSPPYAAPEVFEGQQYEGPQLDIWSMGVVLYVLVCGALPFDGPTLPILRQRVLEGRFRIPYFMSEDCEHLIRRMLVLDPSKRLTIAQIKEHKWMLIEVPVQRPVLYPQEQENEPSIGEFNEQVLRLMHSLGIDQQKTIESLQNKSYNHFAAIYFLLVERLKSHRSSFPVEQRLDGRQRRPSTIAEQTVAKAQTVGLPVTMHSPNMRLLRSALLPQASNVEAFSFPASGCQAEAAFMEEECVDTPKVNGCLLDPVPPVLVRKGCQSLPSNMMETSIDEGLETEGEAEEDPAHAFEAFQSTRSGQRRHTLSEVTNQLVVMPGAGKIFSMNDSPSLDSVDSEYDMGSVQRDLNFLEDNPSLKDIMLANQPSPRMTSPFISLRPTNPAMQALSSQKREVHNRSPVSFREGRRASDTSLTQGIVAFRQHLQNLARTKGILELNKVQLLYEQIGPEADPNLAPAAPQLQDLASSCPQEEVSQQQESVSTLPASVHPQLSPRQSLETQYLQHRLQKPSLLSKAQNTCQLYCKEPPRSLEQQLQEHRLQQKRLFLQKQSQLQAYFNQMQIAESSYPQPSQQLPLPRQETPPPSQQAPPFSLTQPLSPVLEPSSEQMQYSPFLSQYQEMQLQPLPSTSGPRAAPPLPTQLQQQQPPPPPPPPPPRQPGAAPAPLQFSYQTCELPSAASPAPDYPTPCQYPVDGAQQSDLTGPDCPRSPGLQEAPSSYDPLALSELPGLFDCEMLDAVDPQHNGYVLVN
Sequence of SIK3 (Q9Y2K2 whole entry): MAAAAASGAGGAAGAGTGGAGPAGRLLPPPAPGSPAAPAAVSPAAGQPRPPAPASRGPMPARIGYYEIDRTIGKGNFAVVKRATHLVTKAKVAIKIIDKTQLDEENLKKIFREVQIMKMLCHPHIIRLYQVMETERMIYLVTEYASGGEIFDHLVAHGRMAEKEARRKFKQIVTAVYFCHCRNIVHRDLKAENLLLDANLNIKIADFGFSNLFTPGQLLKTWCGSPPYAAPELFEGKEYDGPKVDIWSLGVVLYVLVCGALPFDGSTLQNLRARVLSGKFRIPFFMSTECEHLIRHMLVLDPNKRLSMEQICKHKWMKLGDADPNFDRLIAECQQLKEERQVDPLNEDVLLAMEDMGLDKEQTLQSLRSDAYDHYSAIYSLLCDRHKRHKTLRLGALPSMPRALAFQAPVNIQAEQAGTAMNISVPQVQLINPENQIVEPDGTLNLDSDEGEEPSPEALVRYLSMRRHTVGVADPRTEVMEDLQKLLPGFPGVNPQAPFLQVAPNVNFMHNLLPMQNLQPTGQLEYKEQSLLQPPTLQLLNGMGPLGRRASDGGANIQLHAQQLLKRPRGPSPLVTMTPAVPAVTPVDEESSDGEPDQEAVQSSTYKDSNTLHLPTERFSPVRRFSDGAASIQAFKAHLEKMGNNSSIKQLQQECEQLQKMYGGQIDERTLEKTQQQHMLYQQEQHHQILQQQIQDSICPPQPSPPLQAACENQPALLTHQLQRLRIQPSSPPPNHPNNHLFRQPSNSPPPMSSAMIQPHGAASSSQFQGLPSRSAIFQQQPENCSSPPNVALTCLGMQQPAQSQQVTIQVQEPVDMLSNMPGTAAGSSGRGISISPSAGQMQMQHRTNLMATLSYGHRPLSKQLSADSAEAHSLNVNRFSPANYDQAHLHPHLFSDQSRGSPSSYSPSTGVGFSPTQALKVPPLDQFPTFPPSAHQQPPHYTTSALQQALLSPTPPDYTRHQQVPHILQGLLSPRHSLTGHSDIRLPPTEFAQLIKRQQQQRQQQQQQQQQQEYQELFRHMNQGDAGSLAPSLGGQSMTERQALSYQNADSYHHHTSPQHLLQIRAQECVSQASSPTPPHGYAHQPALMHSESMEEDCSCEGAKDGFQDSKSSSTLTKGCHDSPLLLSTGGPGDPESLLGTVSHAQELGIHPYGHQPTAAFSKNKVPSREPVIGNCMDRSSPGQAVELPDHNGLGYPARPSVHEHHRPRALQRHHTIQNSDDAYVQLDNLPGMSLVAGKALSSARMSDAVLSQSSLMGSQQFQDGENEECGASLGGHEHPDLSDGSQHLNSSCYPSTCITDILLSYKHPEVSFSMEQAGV
Sequence of SIK1 (P57059 whole entry): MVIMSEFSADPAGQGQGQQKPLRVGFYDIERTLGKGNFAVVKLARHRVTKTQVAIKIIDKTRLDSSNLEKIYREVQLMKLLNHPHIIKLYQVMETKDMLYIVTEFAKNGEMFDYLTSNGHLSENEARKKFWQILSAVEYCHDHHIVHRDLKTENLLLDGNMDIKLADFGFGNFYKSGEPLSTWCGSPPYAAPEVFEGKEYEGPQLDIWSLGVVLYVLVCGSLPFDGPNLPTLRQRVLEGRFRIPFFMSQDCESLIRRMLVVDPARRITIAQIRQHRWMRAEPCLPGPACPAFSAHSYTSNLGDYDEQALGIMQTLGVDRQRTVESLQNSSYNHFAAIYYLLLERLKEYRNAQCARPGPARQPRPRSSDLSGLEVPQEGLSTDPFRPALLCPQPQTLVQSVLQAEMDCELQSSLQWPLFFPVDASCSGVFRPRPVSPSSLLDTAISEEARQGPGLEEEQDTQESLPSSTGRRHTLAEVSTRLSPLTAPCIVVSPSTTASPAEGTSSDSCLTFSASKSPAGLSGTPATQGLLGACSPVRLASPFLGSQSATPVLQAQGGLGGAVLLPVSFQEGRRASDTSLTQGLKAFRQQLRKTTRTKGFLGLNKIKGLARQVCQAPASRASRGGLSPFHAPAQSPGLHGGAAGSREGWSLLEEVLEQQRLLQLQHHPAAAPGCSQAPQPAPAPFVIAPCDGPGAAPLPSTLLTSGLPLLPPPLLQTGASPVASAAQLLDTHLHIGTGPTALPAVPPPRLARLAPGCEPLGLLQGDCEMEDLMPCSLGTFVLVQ
Sequence of full length His6-MBP-tagged hSIK2 (Q9H0K1 whole entry): as the sequence (Q9H0K1 whole entry) above

Compound | SIK2 % ACTIVITY [1] | SIK1 % ACTIVITY [2] | Enzyme activity at 1 μM (%) SIK2 [1] | qAC50 [3] | Data Mode [3] | Enzyme activity at 1 μM (%) SIK1 [2] | Viability loss AC40 [4] | Viability loss data mode [4] | Enzyme activity at 1 μM (%) SIK3 [5] | SIK3 % ACTIVITY [5] | IC50 [6]
Cc1ccc(Nc2ncc3c(n2)N(C)C(=O)N(c2cc(NC(=O)c4cccc(C(F)(F)F)c4)ccc2C)C3)cn1 [GNF-7] | 27.4% | 12.0% | – | – | – | – | – | – | – | – | –
Cc1ccc(NC(=O)c2cccc(C(F)(F)F)c2)cc1N1Cc2cnc(Nc3ccc(N4CCN(C)CC4)cc3)nc2N(C)C1=O [HG-11-23-01] | 7.0% | 12.5% | 7% | <50 nM | decreasing | 12.5% | 106 nM | decreasing | – | – | –
CN1CCN(c2ccc(Nc3ncc4c(n3)N(C)C(=O)N(c3ccccc3)C4)cc2)CC1 [HG-11-137-01] | 1.4% | 12.9% | 1.4% | 466 nM | increasing | 12.9% | 6960 nM | decreasing | 8.6% | 8.6% | –
COc1ccc(N2C(=O)N(c3c(C)cccc3C)Cc3cnc(Nc4ccc(N5CCN(C)CC5)cc4OC)nc32)c(OC)c1 [HG-11-139-01] | 2.1% | 15.3% | 2.1% | <50 nM | increasing | 15.3% | 8910 nM | decreasing | 7.5% | 7.5% | –
COc1cc(N2CCN(C)CC2)ccc1Nc1ncc2c(n1)N(C)C(=O)N(c1ccccc1)C2 [HG-11-139-02] | 32.8% | 36.0% | – | >26000 nM | increasing | – | > 10000 nM | inactive | – | – | –
COc1ccc(N2C(=O)N(c3c(C)cccc3C)Cc3cnc(Nc4cc(N5CCOCC5)cc(N5CCN(C)CC5)c4)nc32)c(OC)c1 [HG-11-143-01] | 4.3% | 7.9% | 4.3% | 469 nM | decreasing | 7.9% | – | – | 9.3% | 9.3% | –
COc1ccc(N2C(=O)N(c3c(C)cccc3Cl)Cc3cnc(Nc4ccc(N5CCN(C)CC5)cc4)nc32)nc1 [YKL-05-95] | – | – | – | – | – | – | – | – | – | – | 6 ± 3 nM
COc1ccc(N2C(=O)N(c3c(C)cccc3Cl)Cc3cnc(Nc4ccc(N5CCN(C)CC5)cc4OC)nc32)nc1 [YKL-05-96] | – | – | – | – | – | – | – | – | – | – | 34 ± 14 nM
